From the NIST ThermoML archive (doi:10.1021/acs.jced.9b00243)
± gives the expanded uncertainty stated by the source.

How the values were obtained:
[1] = Molar enthalpy of transition or fusion; details: Crystal; DSC
[2] = Crystal; DSC

Molar enthalpy of transition or fusion [1]: 3.4 ± 0.22 kcal/mol | Triple point temperature [2]: 351.59 ± 1.2 K
Structure (SMILES): N#CCc1ccccc1[N+](=O)[O-] [o-nitrophenylacetonitrile]
